According to PubChem BioAssay AID248 (DTP/NCI, 2004):
Toxic doses and inconclusive results are not listed. No stated cut-off is given here; in the data, active means T/C of 150% or more; inactive means T/C below 125%.

Tested on: L1210 leukemia ip in BDF1 mice, survival T/C
Assay: NCI In Vivo Anticancer Drug Screen. Data for tumor model L1210 Leukemia (intraperitoneal) in B6D2F1 (BDF1) mice
Details: endpoint: mean survival time, higher = longer survival
Method in brief: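 Tumor cells were implanted, animals were treated, and survival was followed. The result divides the treated measurement by the vehicle-control measurement.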

[1] = dose: 100.0 mg/kg/injection, schedule: Q01DX001 (ip), vehicle: Klucel (hydroxypropylcellulose) (HPC)
[2] = dose: 100.0 mg/kg/injection, schedule: Q01DX009 (ip), vehicle: Klucel (hydroxypropylcellulose) (HPC)
[3] = dose: 200.0 mg/kg/injection, schedule: Q01DX001 (ip), vehicle: Klucel (hydroxypropylcellulose) (HPC)
[4] = dose: 200.0 mg/kg/injection, schedule: Q01DX009 (ip), vehicle: Klucel (hydroxypropylcellulose) (HPC)
[5] = dose: 400.0 mg/kg/injection, schedule: Q01DX001 (ip), vehicle: Klucel (hydroxypropylcellulose) (HPC)
[6] = dose: 400.0 mg/kg/injection, schedule: Q01DX009 (ip), vehicle: Klucel (hydroxypropylcellulose) (HPC)
[7] = dose: 100.0 mg/kg/injection, schedule: Q01DX001 (ip), vehicle: saline with Tween-80
[8] = dose: 200.0 mg/kg/injection, schedule: Q01DX001 (ip), vehicle: saline with Tween-80
[9] = dose: 400.0 mg/kg/injection, schedule: Q01DX001 (ip), vehicle: saline with Tween-80
[10] = dose: 100.0 mg/kg/injection, schedule: Q01DX001 (ip), vehicle: saline
[11] = dose: 200.0 mg/kg/injection, schedule: Q01DX001 (ip), vehicle: saline
[12] = dose: 400.0 mg/kg/injection, schedule: Q01DX001 (ip), vehicle: saline
[13] = dose: 200.0 mg/kg/injection, schedule: Q04DX002 (ip), vehicle: Klucel (hydroxypropylcellulose) (HPC)
[14] = dose: 400.0 mg/kg/injection, schedule: Q04DX002 (ip), vehicle: Klucel (hydroxypropylcellulose) (HPC)
[15] = dose: 100.0 mg/kg/injection, schedule: Q04DX002 (ip), vehicle: Klucel (hydroxypropylcellulose) (HPC)
[16] = dose: 100.0 mg/kg/injection, schedule: Q04DX003 (ip), vehicle: saline
[17] = dose: 200.0 mg/kg/injection, schedule: Q04DX003 (ip), vehicle: saline
[18] = dose: 100.0 mg/kg/injection, schedule: Q01DX009 (ip), vehicle: saline with Tween-80
[19] = dose: 100.0 mg/kg/injection, schedule: Q04DX003 (ip), vehicle: saline with Tween-80
[20] = dose: 200.0 mg/kg/injection, schedule: Q01DX009 (ip), vehicle: saline with Tween-80
[21] = dose: 200.0 mg/kg/injection, schedule: Q04DX003 (ip), vehicle: saline with Tween-80
[22] = dose: 400.0 mg/kg/injection, schedule: Q04DX003 (ip), vehicle: saline with Tween-80
[23] = dose: 100.0 mg/kg/injection, schedule: Q01DX005 (ip), vehicle: saline
[24] = dose: 50.0 mg/kg/injection, schedule: Q01DX009 (ip), vehicle: saline with Tween-80
[25] = dose: 100.0 mg/kg/injection, schedule: Q04DX003 (ip), vehicle: Klucel (hydroxypropylcellulose) (HPC)
[26] = dose: 200.0 mg/kg/injection, schedule: Q04DX003 (ip), vehicle: Klucel (hydroxypropylcellulose) (HPC)
[27] = dose: 400.0 mg/kg/injection, schedule: Q04DX003 (ip), vehicle: Klucel (hydroxypropylcellulose) (HPC)
[28] = dose: 100.0 mg/kg/injection, schedule: Q01DX001 (ip), vehicle: carboxymethylcellulose (CMC)
[29] = dose: 200.0 mg/kg/injection, schedule: Q01DX001 (ip), vehicle: carboxymethylcellulose (CMC)
[30] = dose: 400.0 mg/kg/injection, schedule: Q01DX001 (ip), vehicle: carboxymethylcellulose (CMC)
[31] = dose: 50.0 mg/kg/injection, schedule: Q01DX009 (ip), vehicle: Klucel (hydroxypropylcellulose) (HPC)

Measured: T/C

CCCc1c(N)nc(N)nc1C(=O)O
inactive: [1] 94 % of control | [2] 100 % of control | [3] 94 % of control | [4] 109 % of control | [5] 92 % of control | [6] 86 % of control

O=c1[nH]c(/C=C/c2ccccc2)c(S(=O)(=O)N2CCCCC2)c(=O)[nH]1
inactive: [1] 93 % of control | [3] 87 % of control | [5] 93 % of control

Nc1ccc(OCCNC(=O)c2ccc(S(=O)(=O)F)cc2)c(Cl)c1
inactive: [7] 94 % of control | [8] 89 % of control | [9] 96 % of control

CC1(C)[C@H](C(=O)O)CC[C@]1(C)C(=O)O
inactive: dose: 100.0 mg/kg/injection, schedule: Q01DX001 (ip), vehicle: other 103 % of control | dose: 200.0 mg/kg/injection, schedule: Q01DX001 (ip), vehicle: other 103 % of control | dose: 400.0 mg/kg/injection, schedule: Q01DX001 (ip), vehicle: other 105 % of control

CC(C)C1NC(=O)C(Cc2c[nH]c3ccccc23)NC1=O (stereo unspecified)
inactive: [10] 101 % of control | [11] 101 % of control | [12] 91 % of control

CCOC(=O)n1cnc(N)n1
inactive: [2] 104 % of control | [4] 104 % of control | [6] 107 % of control

COC(=O)C1(C)CCCC2(C)C3CCC4(C)CC3(CCO4)CCC12 (stereo unspecified)
inactive: [13] 87 % of control | [14] 95 % of control

O=[N+]([O-])c1cc(/C=N/N=C2c3ccccc3-c3ccccc32)ccc1Cl
inactive: dose: 75.0 mg/kg/injection, schedule: Q01DX001 (ip), vehicle: other 86 % of control | dose: 300.0 mg/kg/injection, schedule: Q01DX001 (ip), vehicle: other 91 % of control

O=C1c2ccccc2C(=O)N1c1ccccc1
inactive: [2] 98 % of control | [15] 91 % of control | [4] 98 % of control | [13] 94 % of control | [6] 95 % of control | [14] 88 % of control

Oc1ccc(C2CCCCCC2)cc1
inactive: dose: 12.5 mg/kg/injection, schedule: Q01DX001 (ip), vehicle: carboxymethylcellulose (CMC) 97 % of control | dose: 25.0 mg/kg/injection, schedule: Q01DX001 (ip), vehicle: carboxymethylcellulose (CMC) 103 % of control

CCCSCCNC(=O)NCCSCCC
inactive: dose: 100.0 mg/kg/injection, schedule: Q04DX002 (ip), vehicle: other 107 % of control | dose: 200.0 mg/kg/injection, schedule: Q04DX002 (ip), vehicle: other 104 % of control | dose: 400.0 mg/kg/injection, schedule: Q04DX002 (ip), vehicle: other 100 % of control

Cc1cc(=O)[nH]c2c1CCC2
inactive: dose: 50.0 mg/kg/injection, schedule: Q01DX009 (ip), vehicle: saline 92 % of control | dose: 100.0 mg/kg/injection, schedule: Q01DX009 (ip), vehicle: saline 95 % of control | [16] 106 % of control | [17] 108 % of control

Cc1nc2c(NC(=O)C(F)(F)F)nn(C)c2nc1C
inactive: [18] 94 % of control | [19] 100 % of control | [20] 92 % of control | [21] 100 % of control | [22] 106 % of control

Cc1ccc(-c2nnc(-c3ccccc3)n2-c2cc(C(=O)O)ccc2C)cc1
inactive: [1] 89 % of control | [2] 91 % of control | [3] 91 % of control | [4] 98 % of control | [5] 97 % of control | [6] 98 % of control

CCOP1(=O)OCC(C)(C)CO1
inactive: [10] 98 % of control | [11] 96 % of control | [12] 102 % of control

CN(C)N=Nc1nn(C2OC(CO)C(O)C2O)cc1C(N)=O (stereo unspecified)
inactive: [23] 121 % of control | dose: 200.0 mg/kg/injection, schedule: Q01DX005 (ip), vehicle: saline 113 % of control

CSc1ccc(B2Oc3cc(Cl)c(Cl)cc3O2)cc1
inactive: dose: 100.0 mg/kg/injection, schedule: Q04DX003 (ip), vehicle: alcohol 124 % of control | dose: 200.0 mg/kg/injection, schedule: Q04DX003 (ip), vehicle: alcohol 95 % of control | dose: 400.0 mg/kg/injection, schedule: Q04DX003 (ip), vehicle: alcohol 100 % of control

O=C1CC(=O)N(c2ccccc2)C(=O)N1
inactive: [24] 99 % of control | [18] 99 % of control | [20] 99 % of control

CCCCCCCCCCCCCCCC(=O)Oc1ccc(C(=S)N2CCOCC2)cc1
inactive: [25] 103 % of control | [26] 99 % of control | [27] 99 % of control

Nc1nc(N)c(N=Nc2ccc(Cl)cc2)c(Cl)n1
inactive: [28] 94 % of control | [29] 97 % of control | [30] 94 % of control

Cc1csc(C)n1
inactive: [18] 95 % of control | [19] 103 % of control | [20] 95 % of control | [21] 107 % of control | [22] 107 % of control

O=c1[nH]cc(CCc2ccccc2)c(=O)[nH]1
inactive: [2] 105 % of control | [25] 94 % of control | [4] 96 % of control | [26] 94 % of control | [6] 98 % of control | [27] 93 % of control

Cc1ccc([N+](=O)[O-])cc1NC(=O)N(C(C)C)C1CCCCC1
inactive: [2] 106 % of control | [4] 95 % of control | [6] 106 % of control

C=C(Br)CNC(N)=S
inactive: [31] 96 % of control | [2] 100 % of control | [25] 94 % of control | [4] 102 % of control | [26] 95 % of control

COc1cccc(/C=C2\CCNC2=O)c1OC
inactive: dose: 50.0 mg/kg/injection, schedule: Q01DX001 (ip), vehicle: carboxymethylcellulose (CMC) 96 % of control | [28] 102 % of control | [29] 100 % of control | [30] 96 % of control

CCOC(=O)C(C)CC(=O)c1ccccc1 (stereo unspecified)
inactive: [24] 106 % of control | [18] 107 % of control | dose: 100.0 mg/kg/injection, schedule: Q04DX002 (ip), vehicle: saline with Tween-80 95 % of control | dose: 200.0 mg/kg/injection, schedule: Q04DX002 (ip), vehicle: saline with Tween-80 95 % of control

COC(=O)/C=C/c1ccc(OC)cc1
inactive: [31] 103 % of control | [2] 102 % of control | [25] 96 % of control | [4] 103 % of control | [26] 100 % of control | [27] 88 % of control

CC1CCC(C(C)C)=C(C2CCCCC2)C1 (stereo unspecified)
inactive: [16] 98 % of control | [17] 104 % of control | dose: 400.0 mg/kg/injection, schedule: Q04DX003 (ip), vehicle: saline 87 % of control

O=C(CS(=O)(=O)O)Nc1ccccc1 (tested in a mixture with another compound)
inactive: [7] 93 % of control | [8] 103 % of control | [9] 90 % of control

O=C(COc1ccc(Br)cc1)Nc1ccc(Br)cc1
inactive: [15] 95 % of control | [13] 95 % of control | [14] 89 % of control

C=CC[Se]c1ncnc2c1ccn2C1OC(CO)C(O)C1O (stereo unspecified)
inactive: dose: 12.5 mg/kg/injection, schedule: Q01DX005 (ip), vehicle: saline 101 % of control | dose: 25.0 mg/kg/injection, schedule: Q01DX005 (ip), vehicle: saline 107 % of control | dose: 50.0 mg/kg/injection, schedule: Q01DX005 (ip), vehicle: saline 107 % of control | [23] 102 % of control

COCCOC(=O)c1ccc(C(N)=NC2CCCCC2)cc1
inactive: [10] 96 % of control | [11] 97 % of control
